From EP0291007A1, “Rhodanine derivative, process for preparing the same and pharmaceutical composition containing the same” (KAKEN PHARMACEUTICAL CO., LTD., priority 1987, dated 1988)
Marks after values point to notes of the source that are not given here.

Experiments:
[1] = system: accumulation of sorbitol in nervous tissues; assay: Inhibiting activity of the accumulation of sorbitol in nervous tissues of streptozotocin-diabetic rats; type: in vivo, SD male rats; settings: comparison compounds with linear alkyl group at 5-position; dose not stated
[2] = system: accumulation of galactitol in red blood cells; assay: Inhibiting activity of the accumulation of galactitol in red blood cells of galactose-fed dogs; type: in vivo, beagle dogs; settings: 10 mg/kg body weight orally once daily for 3 days; blood 10 hours after galactose 15 g/kg; control group 125 ± 10
Method: Each of Compound Nos. 1-11 was administered orally in a dosage of 10 mg/kg body weight once daily for 3 days with a capsule (administration time: 9 a.m. to 9:30 a.m.) to a male or female beagle dogs (body weight: from 8 to 12 kg). As the control group, the dogs were administered with vacant capsules in the same manner as above. Dog foods containing galactose in an amount of 15 g/kg body weight were given to the dogs immediately after the final administration of the capsule. The dogs completely had eaten the dog foods for 5 to 10 minutes. The blood was collected from the cephalic vein of the dog using heparine sodium after 10 hours from the administration of galactose. The collected blood was centrifuged to give red blood cells. The obtained red blood cells were washed twice with a cold physiological saline solution and were hemolysed in distilled water having an equal volume to the red blood cells.
After removing protein from the obtained solution, the resulting solution was treated with ion exchange resins, "Dowex 50 W" and "Duolite A-4", desalted and lyophilized. After subjecting to the pre-treatment of galactitol with trimethyl silyl ether (TMS), the amount of galactitol accumulated in the red blood cells was measured by a gas chromatography.

[3] = system: rats suffering from diabetes; assay: Improving activity of the nerve conduction velocity in diabetic rats (tail nerve, method of Miyoshi); type: in vivo; settings: 100 mg/kg body weight once daily for 2 weeks, control group 24.5 ± 1.2, normal rat 38.4 ± 2.2
Method: Rats suffering from diabetes for the test were prepared in the same manner as in Example 13.
From the day after the administration of streptozotocin, each of Compound Nos. 1-11 suspended in a 5 % aqueous solution of gum arabic was administrated to the rats in a dosage of 100 mg/kg body weight once daily for 2 weeks.
As the control groups, a 5 % aqueous solution of gum aratic having no rhodanine derivative was administered (5 mℓ/kg body weight) in the same manner as above to the rats.
Two weeks later, the conduction velocity of nerve of the rats was measured in accordance with the method of Miyoshi [Fukuoka Medical Jounal, 62(7), 588 to 603(1971)]. In this test, the nerves of the rats' tails were used as materials studied.
The rats were anesthetized with pentobarbital (30 to 45 mg/kg body weight, intraperitoneal administration), and then the conduction velocities of nerves were measured in a constant-temperature box having a temperature of 40°C.
The nerve of rat's tail was pricked with needle electrodes at a portion of about 1 cm from the anus (the first stimulation point) and at a portion of about 5 cm in a distal direction from the first stimulation point (the second stimulation point). Further, the segmental muscle of the rat's tail was pricked with a coaxial needle electrode at a portion of about 5 cm in a distol direction from the second stimulation point. The longitudinal nerve trunk of the rat's tail was stimulated at the first stimulation point and the second stimulation point to record action potentials of the provoked muscle.
The conduction velocity of nerve was calculated as follows: [formula]
Also, with respect to the normal rats administered with a 5 % aqueous solution of gum arabic, the conduction velocity of nerve was measured in the same manner as above.

[4] = Acute toxicity in mice; type: in vivo; settings: mouse, in vivo; oral, mice observed for 2 weeks; read-out: LD₅₀ (oral)
Excerpt: (§1) The acute toxicity in mice was examined by using the rhodanine derivatives of compound Nos. 1, 2, 5, 7 and 10.

[5] = system: male ddY mice; assay: Acute toxicity in mice; type: in vivo; settings: oral, up to a dose of 2,000 mg/kg body weight, observed for 2 weeks
Excerpt: as §1

[6] = system: rats suffering from diabetes; assay: Inhibiting activity of the progress of cataract in diabetic rats (lens opacity score by slit lamp); type: in vivo; settings: 100 mg/kg body weight orally daily for 5 weeks; average lens score (0-4) of both eyes; control group 1.46 ± 0.12, normal rats 0
Method: Rats suffering from diabetes for the test were produced in the same manner as in Example 13.
From the day after the administration of streptozotocin, each of Compound Nos. 1-11 suspended in a 5 % aqueous solution of gum arabic was administered orally 100 mg/kg body weight daily for 5 weeks to the rats. As the control group, a 5 % aqueous solution of gum arabic having no rhodanine derivative was administered (5 mℓ/kg body weight) to the rats in the same manner as above.
After administering streptozotocin, lenses of the rats were observed by using a slit lump (commercially available from KOWA Co., Ltd. under a trade name "Kowa SL-2") every second or third day for 5 weeks, sufficiently keeping the lenses mydriasis with a mydriatic (commercially available from Santen Pharmaceutical Co., Ltd. under the trade name "MYDRIN-P".
The opaqueness of the lenses was estimated according to the following criteria. Score 0: There was no change in the lenses. […] Score 3: Opacity was observed over the whole of lens' surface and the fundus oculi was not seen as if projected through the lens. Score 4: The nucleus lentis became opaque.
Also, with respect to the normal rats administered with a 5 % aqueous solution of gum arabic, the opaqueness were estimated in the same manner as above.

[7] = system: accumulation of sorbitol in nervous tissues; assay: Inhibiting activity of the accumulation of sorbitol in nervous tissues of streptozotocin-diabetic rats; type: in vivo, SD male rats; settings: single dose 48 h after streptozotocin, sciatic nerve sorbitol 5 hours after administration, mean ± spread
Method: After preliminary breeding SD male rats (6 weeks old) in this laboratory for 5 days, streptozotocin (made by Sigma Chemical Company) was administered intravenously (45 mg/kg body weight) to the rats to destroy β cells of Langerhans' islets in pancreas. Thus, rats suffering from diabetes were obtained.
After 48 hours from the administration of streptozotocin, the rhodanine derivative suspended in a 5 % aqueous solution of gum arabic was administered orally (100 mg/kg body weight or 25 mg/kg body weight) to the rats suffering from diabetes.
On the other hand, a 5 % aqueous solution of gum arabic having no rhodanine derivative was administered orally (5 mℓ/kg body weight) to the rats (a control group).
After 5 hours from the administration, the rats were sacrificed by the decapitation and bled to death. Immidiately, the sciatic nervous tissues of the rats were excised and frozen with dry ice. The excised sciatic nervous tissues were stored at -70°C until the sorbitol amount was measured.
After the wet weights of nervous tissues were measured, the tissues were homogenized in 1.0 mℓ of distilled water by using a homogenizer, to which 0.2 mℓ of a 4.5 % aqueous solution of barium hydroxide and 0.2 mℓ of a 5 % aqueous solution of zinc sulfate were added. The mixture was centrifuged for 10 minutes at 3,000 rpm to remove a precipitate. Ion exchange resins "Dowex 50 W" (Dow Chemical Co.) and "Duolite A-4" (Sumitomo Chemical Company, Limited.) purchased were added in small amounts to the obtained supernatant to desalt, which was recentrifuged to obtain a supernatant. To 0.5 mℓ of the extract of sorbitol were added 1.0 mt of a 50 mM glycine-sodium hydroxide buffer solution (pH 9.4) containing 0.2 mM nicotinamide adenine dinucleotide (NAD) and 50 µℓ of an enzyme solution containing 83 µg of sorbitol dehydrogenase (commercially available from BOEHRINGER MANNHEIM CORPORATION), and the mixture was reacted at room temperature for one hour. The amount of NADH formed by oxidation of sorbitol was measured by using a spectrofluorimeter and a sorbitol concentration in the extracts was measured. From the obtained results, sorbitol concentrations in nervous tissues (n mole/mg wet weight) were calculated.
A difference between the sorbitol content of the normal rat (0.12 ± 0.01 n mole/mg) and that of the rat suffering from diabetes (0.81 ± 0.06 n mole/mg) was defined as an amount of sorbitol accumulated in the tissues due to diabetes (hereinafter referred to as "sorbitol amount due to diabetes"). Also, a difference between the sorbitol content of the rat suffering from diabetes (0.81 ± 0.06 n moles/mg) and the sorbitol content of the rat suffering from diabetes which was administered the rhodanine derivative was defined as a lowering of the amount of sorbitol due to administration of the rhodanine derivative (hereinafter referred to as "lowering of sorbitol").
A lowering percentage (%) was defined as a percentage of the lowering of sorbitol to the sorbitol amount due to diabetes. The lowering percentages of the rhodanine derivatives (Compound Nos. 1-11) are shown in Table 3 (administered 100 mg/kg body weight) and Table 4 (administered 25 mg/kg body weight) with the number of rats suffering from diabetes.

CCCCCCCC1SC(=S)N(CC(=O)O)C1=O (stereo not shown) [3-carboxymethyl-5-n-heptylrhodanine]
inhibition of the accumulation of sorbitol [1]: hardly inhibited the accumulation of sorbitol

CCCCC1SC(=S)N(CC(=O)O)C1=O (stereo not shown) [3-carboxymethyl-5-n-butylrhodanine]
inhibition of the accumulation of sorbitol [1]: hardly inhibited the accumulation of sorbitol

CCCC1SC(=S)N(CC(=O)O)C1=O (stereo not shown) [3-carboxymethyl-5-n-propylrhodanine]
inhibition of the accumulation of sorbitol [1]: hardly inhibited the accumulation of sorbitol

CC(C)(C)CC1SC(=S)N(CC(=O)O)C1=O (stereo not shown) [Compound No. 7, 3-Carboxymethyl-5-(2,2-dimethylpropyl)rhodanine]
Amount of galactitol in red blood cells (ng/g hemoglobin) [2]: 48 ± 3 ng/g hemoglobin | Conduction velocity of nerve (m/sec) [3]: 38.5 ± 4.0 m/sec | LD50 at 336 h [4]: > 2000 mg/kg | dead mice [5]: no dead mice were observed | Opaqueness [6]: 0.32 ± 0.05 | Lowering percentage (%) ([7]; 25 mg/kg body weight orally): 52.5 ± 3.4 % | Lowering percentage (%) ([7]; 100 mg/kg body weight orally): 80.9 ± 5.8*^3%
